{"source": "patent US20240400555A1", "about": "(Initial Therapeutics, Inc., priority 2023, published 2024)", "test_system": "MV-4-11 cells", "experiment": "Cell Viability Assay in MV-4-11 Cells", "format": "cell-based", "conditions": "Homo sapiens, MV4-11, 72 h", "outline": "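Luminescent ATP read-out (CellTiter-Glo) after 72 h compound treatment of MV-4-11 leukaemia cells (7,000 per well, IMDM plus 10% FBS). Values expressed relative to DMSO control and derived by four-parameter non-linear regression.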", "key": {"[1]": {"conditions": "MV-4-11 cells, 72 h, Cell-Titer Glo, read-out: IC50"}}, "note": "Where two headings read alike, the source gives them in different places."}
{"smiles": "Cn1cc(-c2ccc(C(=O)N(c3nccc4c(F)cccc34)[C@@H]3CCCNC3)c(F)c2)nn1", "note": "[Example 759, (R)-2-fluoro-N-(5-fluoroisoquinolin-1-yl)-4-(1-methyl-1H-1,2,3-triazol-4-yl)-N-(piperidin-3-yl)benzamide]", "values": [{"measurement": "IC50", "setting": "[1]", "result": 520, "unit": "nM"}]}
{"smiles": "Cc1nnc(-c2ccc(C(=O)N(c3nccc4c(F)ccc(C)c34)[C@@H]3CCCNC3)c(F)c2)s1", "note": "[Example 760, (R)-2-fluoro-N-(5-fluoro-8-methylisoquinolin-1-yl)-4-(5-methyl-1,3,4-thiadiazol-2-yl)-N-(piperidin-3-yl)benzamide]", "values": [{"measurement": "IC50", "setting": "[1]", "result": 160, "unit": "nM"}]}
{"smiles": "Cc1ccc(F)c2ccnc(N(C(=O)c3ccc(-c4cn(C)nn4)cc3F)[C@@H]3CCCNC3)c12", "note": "[Example 761, (R)-2-fluoro-N-(5-fluoro-8-methylisoquinolin-1-yl)-4-(1-methyl-1H-1,2,3-triazol-4-yl)-N-(piperidin-3-yl)benzamide]", "values": [{"measurement": "IC50", "setting": "[1]", "result": 69, "unit": "nM"}]}
{"smiles": "COc1ccc2c(N(C(=O)c3ccc(-c4nnc(C)s4)cc3F)[C@@H]3CCCNC3)nccc2c1", "note": "[Example 762, (R)-2-fluoro-N-(6-methoxyisoquinolin-1-yl)-4-(5-methyl-1,3,4-thiadiazol-2-yl)-N-(piperidin-3-yl)benzamide]", "values": [{"measurement": "IC50", "setting": "[1]", "result": 620, "unit": "nM"}]}
{"smiles": "Cc1cc(Cl)cc2ccnc(N(C(=O)c3ccc(-c4nnn(C)c4C)cc3F)[C@@H]3CCCNC3)c12", "note": "[Example 763, (R)—N-(6-chloro-8-methylisoquinolin-1-yl)-4-(1,5-dimethyl-1H-1,2,3-triazol-4-yl)-2-fluoro-N-(piperidin-3-yl)benzamide]", "values": [{"measurement": "IC50", "setting": "[1]", "result": 34, "unit": "nM"}]}
{"smiles": "Cc1nnc(-c2ccc(C(=O)N(c3nccc4cc(Cl)cc(C)c34)[C@@H]3CCCNC3)c(Cl)c2)o1", "note": "[Example 764, (R)-2-chloro-N-(6-chloro-8-methylisoquinolin-1-yl)-4-(5-methyl-1,3,4-oxadiazol-2-yl)-N-(piperidin-3-yl)benzamide]", "values": [{"measurement": "IC50", "setting": "[1]", "result": "> 7500", "unit": "nM"}]}
{"smiles": "Cc1nnc(-c2ccc(C(=O)N(c3nccc4cc(Cl)cc(C)c34)[C@@H]3CCCNC3)c(F)c2)o1", "note": "[Example 765, (R)—N-(6-chloro-8-methylisoquinolin-1-yl)-2-fluoro-4-(5-methyl-1,3,4-oxadiazol-2-yl)-N-(piperidin-3-yl)benzamide]", "values": [{"measurement": "IC50", "setting": "[1]", "result": 86, "unit": "nM"}]}
{"smiles": "[2H]C([2H])([2H])c1nnc(-c2ccc(C(=O)N(c3nccc4cc(Cl)cc(C)c34)[C@@H]3CCCNC3)c(F)c2)s1", "note": "[Example 766, (R)—N-(6-chloro-8-methylisoquinolin-1-yl)-2-fluoro-4-(5-(methyl-d3)-1,3,4-thiadiazol-2-yl)-N-(piperidin-3-yl)benzamide]", "values": [{"measurement": "IC50", "setting": "[1]", "result": 100, "unit": "nM"}]}
{"smiles": "[2H]C([2H])([2H])c1nnc(-c2ccc(C(=O)N(c3nccc4cc(F)cc(C)c34)[C@@H]3CCCNC3)c(F)c2)s1", "note": "[Example 767, 2-fluoro-N-(6-fluoro-8-methyl-1-isoquinolyl)-N-[(3R)-3-piperidyl]-4-[5-(trideuteriomethyl)-1,3,4-thiadiazol-2-yl]benzamide]", "values": [{"measurement": "IC50", "setting": "[1]", "result": 130, "unit": "nM"}]}
{"smiles": "Cc1csc2ccnc(N(C(=O)c3ccc(-c4cc(Cl)cnn4)cc3F)[C@@H]3CCCNC3)c12", "note": "[Example 768, (R)-4-(5-chloropyridazin-3-yl)-2-fluoro-N-(3-methylthieno[3,2-c]pyridin-4-yl)-N-(piperidin-3-yl)benzamide]", "values": [{"measurement": "IC50", "setting": "[1]", "result": 92, "unit": "nM"}]}
{"smiles": "Cc1cc(Cl)cc2ccnc(N(C(=O)c3ccc(-c4cc(Cl)cnn4)cn3)[C@@H]3CCCNC3)c12", "note": "[Example 769, (R)—N-(6-chloro-8-methylisoquinolin-1-yl)-5-(5-chloropyridazin-3-yl)-N-(piperidin-3-yl)picolinamide]", "values": [{"measurement": "IC50", "setting": "[1]", "result": 120, "unit": "nM"}]}
{"smiles": "Cc1cc(F)cc2ccnc(N(C(=O)c3ccc(-c4nnn(C)c4C)cc3)[C@@H]3CCCNC3)c12", "note": "[Example 770, (R)-4-(1,5-dimethyl-1H-1,2,3-triazol-4-yl)-N-(6-fluoro-8-methylisoquinolin-1-yl)-N-(piperidin-3-yl)benzamide]", "values": [{"measurement": "IC50", "setting": "[1]", "result": 430, "unit": "nM"}]}
{"smiles": "Cc1cc(Cl)cc2ccnc(N(C(=O)c3ccc(-c4nnn(C)c4C)cc3)[C@@H]3CCCNC3)c12", "note": "[Example 771, (R)—N-(6-chloro-8-methylisoquinolin-1-yl)-4-(1,5-dimethyl-1H-1,2,3-triazol-4-yl)-N-(piperidin-3-yl)benzamide]", "values": [{"measurement": "IC50", "setting": "[1]", "result": 140, "unit": "nM"}]}
{"smiles": "Cc1nnc(-c2ccc(C(=O)N(c3nccc4cc(Cl)cc(C)c34)[C@@H]3CCCNC3)cc2)o1", "note": "[Example 772, (R)—N-(6-chloro-8-methylisoquinolin-1-yl)-4-(5-methyl-1,3,4-oxadiazol-2-yl)-N-(piperidin-3-yl)benzamide]", "values": [{"measurement": "IC50", "setting": "[1]", "result": 130, "unit": "nM"}]}
{"smiles": "Cc1noc(-c2ccc(C(=O)N(c3nccc4cc(Cl)cc(C)c34)[C@@H]3CCCNC3)cc2)n1", "note": "[Example 773, (R)—N-(6-chloro-8-methylisoquinolin-1-yl)-4-(3-methyl-1,2,4-oxadiazol-5-yl)-N-(piperidin-3-yl)benzamide]", "values": [{"measurement": "IC50", "setting": "[1]", "result": 190, "unit": "nM"}]}
{"smiles": "Cc1nsc(-c2ccc(C(=O)N(c3nccc4cc(F)cc(C)c34)[C@@H]3CCCNC3)cc2)n1", "note": "[Example 774, (R)—N-(6-fluoro-8-methylisoquinolin-1-yl)-4-(3-methyl-1,2,4-thiadiazol-5-yl)-N-(piperidin-3-yl)benzamide]", "values": [{"measurement": "IC50", "setting": "[1]", "result": 1500, "unit": "nM"}]}
{"smiles": "Cc1noc(-c2ccc(C(=O)N(c3nccc4cc(F)cc(C)c34)[C@@H]3CCCNC3)cc2)n1", "note": "[Example 775, (R)—N-(6-fluoro-8-methylisoquinolin-1-yl)-4-(3-methyl-1,2,4-oxadiazol-5-yl)-N-(piperidin-3-yl)benzamide]", "values": [{"measurement": "IC50", "setting": "[1]", "result": 99, "unit": "nM"}]}
{"smiles": "Cc1nnc(-c2ccc(C(=O)N(c3nccc4cc(F)cc(C)c34)[C@@H]3CCCNC3)c(F)c2)o1", "note": "[Example 776, (R)-2-fluoro-N-(6-fluoro-8-methylisoquinolin-1-yl)-4-(5-methyl-1,3,4-oxadiazol-2-yl)-N-(piperidin-3-yl)benzamide]", "values": [{"measurement": "IC50", "setting": "[1]", "result": 150, "unit": "nM"}]}
{"smiles": "Cc1noc(-c2ccc(C(=O)N(c3nccc4scc(C)c34)[C@@H]3CCCNC3)c(C)c2)n1", "note": "[Example 777, (R)-2-methyl-4-(3-methyl-1,2,4-oxadiazol-5-yl)-N-(3-methylthieno[3,2-c]pyridin-4-yl)-N-(piperidin-3-yl)benzamide]", "values": [{"measurement": "IC50", "setting": "[1]", "result": 720, "unit": "nM"}]}
{"smiles": "Cc1noc(-c2ccc(C(=O)N(c3nccc4scc(C)c34)[C@@H]3CCCNC3)c(F)c2)n1", "note": "[Example 778, (R)-2-fluoro-4-(3-methyl-1,2,4-oxadiazol-5-yl)-N-(3-methylthieno[3,2-c]pyridin-4-yl)-N-(piperidin-3-yl)benzamide]", "values": [{"measurement": "IC50", "setting": "[1]", "result": 280, "unit": "nM"}]}
{"smiles": "Cc1nsc(-c2ccc(C(=O)N(c3nccc4scc(C)c34)[C@@H]3CCCNC3)c(F)c2)n1", "note": "[Example 779, (R)-2-fluoro-4-(3-methyl-1,2,4-thiadiazol-5-yl)-N-(3-methylthieno[3,2-c]pyridin-4-yl)-N-(piperidin-3-yl)benzamide]", "values": [{"measurement": "IC50", "setting": "[1]", "result": 1300, "unit": "nM"}]}
{"smiles": "[2H]C([2H])([2H])c1nnc(-c2ccc(C(=O)N(c3nccc4scc(C)c34)[C@@H]3CCCNC3)c(F)c2)s1", "note": "[Example 780, 2-fluoro-N-(3-methylthieno[3,2-c]pyridin-4-yl)-N-[(3R)-3-piperidyl]-4-[5-(trideuteriomethyl)-1,3,4-thiadiazol-2-yl] benzamide]", "values": [{"measurement": "IC50", "result": 120, "unit": "nM"}]}
{"smiles": "Cc1nnc(-c2ccc(C(=O)N(c3nccc4scc(C)c34)[C@@H]3CCCNC3)c(F)c2)s1", "note": "[Example 781, (R)-2-fluoro-4-(5-methyl-1,3,4-thiadiazol-2-yl)-N-(3-methylthieno[3,2-c]pyridin-4-yl)-N-(piperidin-3-yl)benzamide]", "values": [{"measurement": "IC50", "setting": "[1]", "result": 130, "unit": "nM"}]}
